Assay results: PubChem BioAssay AID248 (DTP/NCI, 2004)
Several values for one entry are separate records, joined by “and”; a condition that tells them apart may be missing. Equal entries are not always repeated. Inconclusive results and toxic doses are left out. No stated cut-off is given here; in the data, active means T/C of 150% or more; inactive means T/C below 125%.

Tested on: L1210 leukemia ip in BDF1 mice, survival T/C
Experiment: NCI In Vivo Anticancer Drug Screen. Data for tumor model L1210 Leukemia (intraperitoneal) in B6D2F1 (BDF1) mice
Settings: endpoint: mean survival time, higher = longer survival
In short: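 Mice bearing the transplanted tumor received compound or vehicle. Survival of the treated group was divided by that of the vehicle-treated control group to give the ratio.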

[1] = dose: 25.0 mg/kg/injection, schedule: Q01DX009 (ip), vehicle: Klucel (hydroxypropylcellulose) (HPC)
[2] = dose: 50.0 mg/kg/injection, schedule: Q01DX009 (ip), vehicle: Klucel (hydroxypropylcellulose) (HPC)
[3] = dose: 100.0 mg/kg/injection, schedule: Q01DX009 (ip), vehicle: Klucel (hydroxypropylcellulose) (HPC)
[4] = dose: 200.0 mg/kg/injection, schedule: Q01DX009 (ip), vehicle: Klucel (hydroxypropylcellulose) (HPC)
[5] = dose: 200.0 mg/kg/injection, schedule: Q04DX003 (ip), vehicle: saline
[6] = dose: 400.0 mg/kg/injection, schedule: Q01DX009 (ip), vehicle: Klucel (hydroxypropylcellulose) (HPC)
[7] = dose: 400.0 mg/kg/injection, schedule: Q04DX003 (ip), vehicle: saline
[8] = dose: 100.0 mg/kg/injection, schedule: Q01DX001 (ip), vehicle: other
[9] = dose: 200.0 mg/kg/injection, schedule: Q01DX001 (ip), vehicle: other
[10] = dose: 400.0 mg/kg/injection, schedule: Q01DX001 (ip), vehicle: other
[11] = dose: 100.0 mg/kg/injection, schedule: Q04DX003 (ip), vehicle: saline
[12] = dose: 100.0 mg/kg/injection, schedule: Q04DX003 (ip), vehicle: saline with Tween-80
[13] = dose: 200.0 mg/kg/injection, schedule: Q04DX003 (ip), vehicle: saline with Tween-80
[14] = dose: 400.0 mg/kg/injection, schedule: Q04DX003 (ip), vehicle: saline with Tween-80
[15] = dose: 100.0 mg/kg/injection, schedule: Q04DX003 (ip), vehicle: Klucel (hydroxypropylcellulose) (HPC)
[16] = dose: 200.0 mg/kg/injection, schedule: Q04DX003 (ip), vehicle: Klucel (hydroxypropylcellulose) (HPC)

Measured: T/C

Cc1cc(C)cc(OCC2CNC(=O)O2)c1 (stereo not given)
inactive: [1] 101 % of control | dose: 25.0 mg/kg/injection, schedule: Q04DX003 (ip), vehicle: saline 90 % of control | [2] 114 % of control | dose: 50.0 mg/kg/injection, schedule: Q04DX003 (ip), vehicle: saline 92 % of control | [3] 100 % of control | [4] 100 % of control | [5] 90 % of control | [6] 103 % of control | [7] 113 % of control

CCOC(=O)c1c[nH]c2c(Cl)cc(Cl)cc2c1=O
inactive: [8] 104 % of control | [9] 95 % of control | [10] 101 % of control

CCCCC(C)(O)C(F)(F)F (stereo not given)
inactive: dose: 100.0 mg/kg/injection, schedule: Q01DX001 (ip), vehicle: steriod suspending solution 96 % of control | dose: 200.0 mg/kg/injection, schedule: Q01DX001 (ip), vehicle: steriod suspending solution 91 % of control | dose: 400.0 mg/kg/injection, schedule: Q01DX001 (ip), vehicle: steriod suspending solution 100 % of control

Nc1nc2c(c(=O)[nH]1)N1CN(c3ccc(C(=O)NC(CCC(=O)O)C(=O)O)cc3)CCC1CN2 (stereo not given)
inactive: dose: 1.0 mg/kg/injection, schedule: Q01DX009 (ip), vehicle: saline 94 % of control | dose: 2.0 mg/kg/injection, schedule: Q01DX009 (ip), vehicle: saline 100 % of control | dose: 4.0 mg/kg/injection, schedule: Q01DX009 (ip), vehicle: saline 89 % of control | dose: 4.0 mg/kg/injection, schedule: Q04DX003 (ip), vehicle: saline 94 % of control | dose: 8.0 mg/kg/injection, schedule: Q01DX009 (ip), vehicle: saline 100 % of control | dose: 8.0 mg/kg/injection, schedule: Q04DX003 (ip), vehicle: saline 109 % of control | dose: 16.0 mg/kg/injection, schedule: Q01DX009 (ip), vehicle: saline 94 % of control | dose: 16.0 mg/kg/injection, schedule: Q04DX003 (ip), vehicle: saline 87 % of control | dose: 32.0 mg/kg/injection, schedule: Q04DX003 (ip), vehicle: saline 101 % of control | dose: 64.0 mg/kg/injection, schedule: Q04DX003 (ip), vehicle: saline 95 % of control

CC(=O)NCCN
inactive: [11] 92 % of control | [7] 108 % of control

O=C1/C(=C/c2ccncc2)CCCc2ccccc21
inactive: dose: 6.25 mg/kg/injection, schedule: Q04DX003 (ip), vehicle: Klucel (hydroxypropylcellulose) (HPC) 98 % of control | dose: 12.5 mg/kg/injection, schedule: Q04DX003 (ip), vehicle: Klucel (hydroxypropylcellulose) (HPC) 97 % of control | dose: 25.0 mg/kg/injection, schedule: Q04DX003 (ip), vehicle: Klucel (hydroxypropylcellulose) (HPC) 97 % of control | dose: 200.0 mg/kg/injection, schedule: Q04DX003 (ip), vehicle: carboxymethylcellulose (CMC) 100 % of control

O=C1OC(c2ccc(Cl)cc2)=N/C1=C\c1ccccc1
inactive: [12] 100 % of control | [13] 90 % of control | [14] 91 % of control

O=C(/C=C/C(=O)Oc1ccc(Cl)cc1)Oc1ccc(Cl)cc1
inactive: dose: 100.0 mg/kg/injection, schedule: Q01DX001 (ip), vehicle: Klucel (hydroxypropylcellulose) (HPC) 96 % of control | [3] 102 % of control | [15] 97 % of control | dose: 200.0 mg/kg/injection, schedule: Q01DX001 (ip), vehicle: Klucel (hydroxypropylcellulose) (HPC) 101 % of control | [4] 102 % of control | [16] 108 % of control | dose: 400.0 mg/kg/injection, schedule: Q01DX001 (ip), vehicle: Klucel (hydroxypropylcellulose) (HPC) 99 % of control | [6] 100 % of control | dose: 400.0 mg/kg/injection, schedule: Q04DX003 (ip), vehicle: Klucel (hydroxypropylcellulose) (HPC) 107 % of control

C1CCC(NC2=NCCO2)CC1
inactive: dose: 12.5 mg/kg/injection, schedule: Q04DX002 (ip), vehicle: saline with Tween-80 101 % of control | dose: 25.0 mg/kg/injection, schedule: Q04DX002 (ip), vehicle: saline with Tween-80 93 % of control | dose: 50.0 mg/kg/injection, schedule: Q04DX002 (ip), vehicle: saline with Tween-80 90 % of control

NC(=Nc1ccccc1)c1ccc(C(N)=Nc2ccccc2)cc1
inactive: dose: 15.0 mg/kg/injection, schedule: Q01DX Z (ip), vehicle: carboxymethylcellulose (CMC) 104 % of control | dose: 30.0 mg/kg/injection, schedule: Q01DX Z (ip), vehicle: carboxymethylcellulose (CMC) 98 % of control | dose: 60.0 mg/kg/injection, schedule: Q01DX Z (ip), vehicle: carboxymethylcellulose (CMC) 86 % of control

O=C1C(Cl)=C(N2CCOCC2)C(=O)C(Cl)=C1N1CCOCC1
inactive: dose: 50.0 mg/kg/injection, schedule: Q01DX001 (ip), vehicle: carboxymethylcellulose (CMC) 94 % of control | dose: 100.0 mg/kg/injection, schedule: Q01DX001 (ip), vehicle: carboxymethylcellulose (CMC) 92 % of control | dose: 200.0 mg/kg/injection, schedule: Q01DX001 (ip), vehicle: carboxymethylcellulose (CMC) 99 % of control | dose: 400.0 mg/kg/injection, schedule: Q01DX001 (ip), vehicle: carboxymethylcellulose (CMC) 97 % of control

CC(=O)CCC(=O)CCC(C)=O
inactive: dose: 100.0 mg/kg/injection, schedule: Q04DX002 (ip), vehicle: saline 93 % of control | dose: 200.0 mg/kg/injection, schedule: Q04DX002 (ip), vehicle: saline 101 % of control | dose: 400.0 mg/kg/injection, schedule: Q04DX002 (ip), vehicle: saline 101 % of control

CC(=O)OC1CCC(NC(=O)NCCF)CC1 (stereo not given)
inactive: [8] 98 % of control | [9] 104 % of control | [10] 115 % of control

COc1ccc(OC(=O)Nc2ccc(C)cc2Cl)cc1
inactive: dose: 100.0 mg/kg/injection, schedule: Q01DX009 (ip), vehicle: saline with Tween-80 96 % of control and 104 % of control | dose: 100.0 mg/kg/injection, schedule: Q04DX002 (ip), vehicle: saline with Tween-80 103 % of control and 104 % of control | dose: 200.0 mg/kg/injection, schedule: Q01DX009 (ip), vehicle: saline with Tween-80 97 % of control and 105 % of control | dose: 200.0 mg/kg/injection, schedule: Q04DX002 (ip), vehicle: saline with Tween-80 100 % of control and 107 % of control | dose: 400.0 mg/kg/injection, schedule: Q01DX009 (ip), vehicle: saline with Tween-80 105 % of control and 108 % of control | dose: 400.0 mg/kg/injection, schedule: Q04DX002 (ip), vehicle: saline with Tween-80 96 % of control and 106 % of control

CO/N=C/c1ccc([N+](=O)[O-])s1
inactive: [11] 106 % of control | [5] 95 % of control | [7] 98 % of control

O=C(Nc1ccc(F)cc1)Nc1ccc(Cl)cc1
inactive: [12] 86 % of control | [13] 86 % of control | [14] 87 % of control

CSc1ccccc1/C=C(/C(=O)O)c1ccccc1O
inactive: dose: 100.0 mg/kg/injection, schedule: Q01DX001 (ip), vehicle: saline with Tween-80 103 % of control | dose: 200.0 mg/kg/injection, schedule: Q01DX001 (ip), vehicle: saline with Tween-80 97 % of control | dose: 400.0 mg/kg/injection, schedule: Q01DX001 (ip), vehicle: saline with Tween-80 103 % of control

CN(C)N=Nc1ccc2c(c1)C(=O)NC2=O
inactive: [12] 96 % of control | [13] 99 % of control | [14] 99 % of control

O=C(O)/C(=C\C#Cc1ccccc1)c1ccccc1
inactive: [15] 94 % of control | [16] 100 % of control

c1ccc(N=C(Nc2ccccc2)Nc2ccccc2)cc1
inactive: [1] 94 % of control | dose: 25.0 mg/kg/injection, schedule: Q04DX002 (ip), vehicle: Klucel (hydroxypropylcellulose) (HPC) 114 % of control | [2] 94 % of control | dose: 50.0 mg/kg/injection, schedule: Q04DX002 (ip), vehicle: Klucel (hydroxypropylcellulose) (HPC) 114 % of control | [3] 90 % of control | dose: 100.0 mg/kg/injection, schedule: Q04DX002 (ip), vehicle: Klucel (hydroxypropylcellulose) (HPC) 96 % of control and 98 % of control
